# Source: PubChem BioAssay (NCI)
#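 At the GI50, growth is halved. At the TGI there is no net growth.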
# Columns and labels:
# Test in all cases: NCI tumour cell line growth inhibition, 384-well format
# SF-539 CNS = test system: SF-539 CNS
# A549 NSCLC = test system: A549 NSCLC
# OVCAR-5 ovarian = test system: OVCAR-5 ovarian
# UACC-257 melanoma = test system: UACC-257 melanoma
# OVCAR-8 ovarian = test system: OVCAR-8 ovarian
# U251 glioblastoma = test system: U251 glioblastoma
# IGROV1 ovarian = test system: IGROV1 ovarian
# SF-295 CNS = test system: SF-295 CNS
# NCI/ADR-RES ovarian = test system: NCI/ADR-RES ovarian
# PC-3 prostate = test system: PC-3 prostate
# NCI-H23 lung = test system: NCI-H23 lung
# RPMI-8226 leukemia = test system: RPMI-8226 leukemia
# OVCAR-4 ovarian = test system: OVCAR-4 ovarian
# MOLT-4 leukemia = test system: MOLT-4 leukemia
# NCI-H226 lung = test system: NCI-H226 lung
# HT29 colon = test system: HT29 colon
# KM12 colon = test system: KM12 colon
# NCI-H322M lung = test system: NCI-H322M lung
# HOP-92 NSCLC = test system: HOP-92 NSCLC
# MDA-MB-468 breast = test system: MDA-MB-468 breast
# COLO 205 colon = test system: COLO 205 colon
# SN12C renal = test system: SN12C renal
# SK-MEL-28 melanoma = test system: SK-MEL-28 melanoma
# SF-268 CNS = test system: SF-268 CNS
# MCF7 breast = test system: MCF7 breast
# K-562 leukemia = test system: K-562 leukemia
# RXF 393 renal = test system: RXF 393 renal
# SR leukemia = test system: SR leukemia
# CCRF-CEM leukemia = test system: CCRF-CEM leukemia
# SW-620 colon = test system: SW-620 colon
# TK-10 renal = test system: TK-10 renal
# MDA-MB-435 melanoma = test system: MDA-MB-435 melanoma
# HCT-116 colon = test system: HCT-116 colon
# HOP-62 NSCLC = test system: HOP-62 NSCLC
# HS 578T breast = test system: HS 578T breast
# HL-60(TB) leukemia = test system: HL-60(TB) leukemia
# MDA-MB-231 breast = test system: MDA-MB-231 breast
# SNB-19 CNS = test system: SNB-19 CNS
# M14 melanoma = test system: M14 melanoma
# SK-OV-3 ovarian = test system: SK-OV-3 ovarian
# LOX IMVI melanoma = test system: LOX IMVI melanoma
# EKVX NSCLC = test system: EKVX NSCLC
# NCI-H460 NSCLC = test system: NCI-H460 NSCLC
# SK-MEL-5 melanoma = test system: SK-MEL-5 melanoma
# UO-31 renal = test system: UO-31 renal
# CAKI-1 renal = test system: CAKI-1 renal
# NCI-H522 lung = test system: NCI-H522 lung
# DU-145 prostate = test system: DU-145 prostate
# OVCAR-3 ovarian = test system: OVCAR-3 ovarian
# 786-0 renal = test system: 786-0 renal
# A498 renal = test system: A498 renal
# HCT-15 colon = test system: HCT-15 colon
# ACHN renal = test system: ACHN renal
# HCC-2998 colon = test system: HCC-2998 colon
# BT-549 breast = test system: BT-549 breast
# SNB-75 CNS = test system: SNB-75 CNS
# UACC-62 melanoma = test system: UACC-62 melanoma
# T-47D breast = test system: T-47D breast
# MALME-3M melanoma = test system: MALME-3M melanoma
smiles,measurement,setting,value
O=C(Cc1ccc(-c2ccc(OCCN3CCOCC3)cc2)cn1)NCc1ccccc1,GI50,SF-539 CNS,21.4 nM
same,TGI,SF-539 CNS,53.7 nM
same,GI50,A549 NSCLC,50.2 nM
same,TGI,A549 NSCLC,> 100000 nM
same,GI50,OVCAR-5 ovarian,80 nM
same,TGI,OVCAR-5 ovarian,> 100000 nM
same,GI50,UACC-257 melanoma,45.7 nM
same,TGI,UACC-257 melanoma,43700 nM
same,GI50,OVCAR-8 ovarian,31.4 nM
same,TGI,OVCAR-8 ovarian,134 nM
same,GI50,U251 glioblastoma,32 nM
same,TGI,U251 glioblastoma,150 nM
same,GI50,IGROV1 ovarian,61.2 nM
same,TGI,IGROV1 ovarian,54400 nM
same,GI50,SF-295 CNS,15.7 nM
same,TGI,SF-295 CNS,38 nM
same,GI50,NCI/ADR-RES ovarian,17.7 nM
same,TGI,NCI/ADR-RES ovarian,39.3 nM
same,GI50,PC-3 prostate,34.5 nM
same,TGI,PC-3 prostate,> 100000 nM
same,GI50,NCI-H23 lung,22.8 nM
same,TGI,NCI-H23 lung,60.3 nM
same,GI50,RPMI-8226 leukemia,14.2 nM
same,TGI,RPMI-8226 leukemia,27.7 nM
same,GI50,OVCAR-4 ovarian,41.1 nM
same,TGI,OVCAR-4 ovarian,39700 nM
same,GI50,MOLT-4 leukemia,15.3 nM
same,TGI,MOLT-4 leukemia,29.8 nM
same,GI50,NCI-H226 lung,34.6 nM
same,TGI,NCI-H226 lung,220 nM
same,GI50,HT29 colon,28.3 nM
same,TGI,HT29 colon,> 100000 nM
same,GI50,KM12 colon,30 nM
same,TGI,KM12 colon,2010 nM
same,GI50,NCI-H322M lung,38.1 nM
same,TGI,NCI-H322M lung,71600 nM
same,GI50,HOP-92 NSCLC,38.1 nM
same,TGI,HOP-92 NSCLC,2950 nM
same,GI50,MDA-MB-468 breast,15.6 nM
same,TGI,MDA-MB-468 breast,30.6 nM
same,GI50,COLO 205 colon,16.3 nM
same,TGI,COLO 205 colon,34.5 nM
same,GI50,SN12C renal,38.9 nM
same,TGI,SN12C renal,16600 nM
same,GI50,SK-MEL-28 melanoma,38.6 nM
same,TGI,SK-MEL-28 melanoma,> 100000 nM
same,GI50,SF-268 CNS,35.2 nM
same,TGI,SF-268 CNS,513 nM
same,GI50,MCF7 breast,49.9 nM
same,TGI,MCF7 breast,7190 nM
same,GI50,K-562 leukemia,19.8 nM
same,TGI,K-562 leukemia,54.1 nM
same,GI50,RXF 393 renal,17.5 nM
same,TGI,RXF 393 renal,39.7 nM
same,GI50,SR leukemia,12.3 nM
same,TGI,SR leukemia,25.6 nM
same,GI50,CCRF-CEM leukemia,18.4 nM
same,TGI,CCRF-CEM leukemia,33.3 nM
same,GI50,SW-620 colon,30.7 nM
same,TGI,SW-620 colon,> 100000 nM
same,GI50,TK-10 renal,39.9 nM
same,TGI,TK-10 renal,45900 nM
same,GI50,MDA-MB-435 melanoma,15.1 nM
same,TGI,MDA-MB-435 melanoma,30.7 nM
same,GI50,HCT-116 colon,31.8 nM
same,TGI,HCT-116 colon,709 nM
same,GI50,HOP-62 NSCLC,29.8 nM
same,TGI,HOP-62 NSCLC,3420 nM
same,GI50,HS 578T breast,18.6 nM
same,TGI,HS 578T breast,38.9 nM
same,GI50,HL-60(TB) leukemia,16.1 nM
same,TGI,HL-60(TB) leukemia,29.7 nM
same,GI50,MDA-MB-231 breast,53.2 nM
same,TGI,MDA-MB-231 breast,> 100000 nM
same,GI50,SNB-19 CNS,41.3 nM
same,TGI,SNB-19 CNS,3110 nM
same,GI50,M14 melanoma,18.5 nM
same,TGI,M14 melanoma,42.2 nM
same,GI50,SK-OV-3 ovarian,32.7 nM
same,TGI,SK-OV-3 ovarian,2670 nM
same,GI50,LOX IMVI melanoma,49.8 nM
same,TGI,LOX IMVI melanoma,298 nM
same,GI50,EKVX NSCLC,42.4 nM
same,TGI,EKVX NSCLC,99400 nM
same,GI50,NCI-H460 NSCLC,20.2 nM
same,TGI,NCI-H460 NSCLC,45.4 nM
same,GI50,SK-MEL-5 melanoma,20.3 nM
same,TGI,SK-MEL-5 melanoma,46.6 nM
same,GI50,UO-31 renal,66.5 nM
same,TGI,UO-31 renal,> 100000 nM
same,GI50,CAKI-1 renal,40.1 nM
same,TGI,CAKI-1 renal,> 100000 nM
same,GI50,NCI-H522 lung,17.6 nM
same,TGI,NCI-H522 lung,44.9 nM
same,GI50,DU-145 prostate,30.2 nM
same,TGI,DU-145 prostate,174 nM
same,GI50,OVCAR-3 ovarian,17.4 nM
same,TGI,OVCAR-3 ovarian,41.7 nM
same,GI50,786-0 renal,32.3 nM
same,TGI,786-0 renal,220 nM
same,GI50,A498 renal,31.8 nM
same,TGI,A498 renal,625 nM
same,GI50,HCT-15 colon,32.1 nM
same,TGI,HCT-15 colon,163 nM
same,GI50,ACHN renal,80.1 nM
same,TGI,ACHN renal,45100 nM
same,GI50,HCC-2998 colon,20.4 nM
same,TGI,HCC-2998 colon,133 nM
same,GI50,BT-549 breast,28.3 nM
same,TGI,BT-549 breast,179 nM
O=c1[nH]c(=O)n(C2CC(O)C(CO)O2)cc1F (configuration not stated),GI50,SF-539 CNS,11.2 nM
same,TGI,SF-539 CNS,102 nM
same,GI50,A549 NSCLC,31.8 nM
same,GI50,OVCAR-5 ovarian,321 nM
same,GI50,OVCAR-8 ovarian,79.8 nM
same,GI50,U251 glioblastoma,112 nM
same,GI50,IGROV1 ovarian,559 nM
same,GI50,SF-295 CNS,13.2 nM
same,TGI,SF-295 CNS,53.2 nM
same,GI50,NCI/ADR-RES ovarian,214 nM
same,GI50,SNB-75 CNS,16.9 nM
same,GI50,PC-3 prostate,90.4 nM
same,GI50,NCI-H23 lung,112 nM
same,GI50,OVCAR-4 ovarian,27400 nM
same,TGI,MOLT-4 leukemia,15.7 nM
same,GI50,HT29 colon,53.9 nM
same,GI50,KM12 colon,844 nM
same,GI50,NCI-H322M lung,345 nM
same,GI50,HOP-92 NSCLC,2480 nM
same,GI50,MDA-MB-468 breast,13.7 nM
same,TGI,MDA-MB-468 breast,53.7 nM
same,GI50,SN12C renal,28.9 nM
same,TGI,SN12C renal,238 nM
same,GI50,SK-MEL-28 melanoma,101 nM
same,TGI,SK-MEL-28 melanoma,3610 nM
same,GI50,UACC-62 melanoma,177 nM
same,GI50,SF-268 CNS,13 nM
same,GI50,K-562 leukemia,351 nM
same,TGI,K-562 leukemia,9400 nM
same,GI50,RXF 393 renal,2920 nM
same,TGI,RXF 393 renal,25900 nM
same,GI50,CCRF-CEM leukemia,23.8 nM
same,TGI,CCRF-CEM leukemia,97.2 nM
same,GI50,SW-620 colon,28.7 nM
same,GI50,TK-10 renal,721 nM
same,GI50,MDA-MB-435 melanoma,1380 nM
same,GI50,HCT-116 colon,52.9 nM
same,TGI,HCT-116 colon,40600 nM
same,GI50,HS 578T breast,28.2 nM
same,TGI,HS 578T breast,171 nM
same,GI50,HL-60(TB) leukemia,25.5 nM
same,TGI,HL-60(TB) leukemia,115 nM
same,GI50,MDA-MB-231 breast,444 nM
same,GI50,SNB-19 CNS,39.4 nM
same,GI50,M14 melanoma,104 nM
same,GI50,SK-OV-3 ovarian,112 nM
same,GI50,LOX IMVI melanoma,35.4 nM
same,GI50,UO-31 renal,26.1 nM
same,GI50,CAKI-1 renal,69.5 nM
same,GI50,DU-145 prostate,35.9 nM
same,GI50,T-47D breast,11500 nM
same,GI50,786-0 renal,69.9 nM
same,GI50,MALME-3M melanoma,3990 nM
same,TGI,A498 renal,59500 nM
same,GI50,HCT-15 colon,55.1 nM
same,GI50,ACHN renal,30.2 nM
same,TGI,BT-549 breast,2780 nM
